Assay [1] relates to Zscan4-Emerald GFP and MERVL-tdTomato reporter expression in mouse EPS cells. Description: Screen with Zscan4-Emerald GFP and MERVL-tdTomato reporter EPS cells. Format: cell-based. To be noted: for effect with CD1530 in inducing totipotent markers: combined with CD1530, EPS reporter cells, day 3. The protocol: Cells were gently digested into single cells using 0.05% trypsin-EDTA. Suspensions were filtered through a 40 µm cell strainer. Then, the samples were analyzed on CytoFLEX (Beckman Coulter). Data analysis was performed using CytExpert software.
To identify small molecules that can induce totipotent features in mouse EPS cells, we used cell lines carrying a MERVL-TdTomato or a Zscan4-Emerald GFP reporter. As the positive control, Dux overexpression was performed in these reporter cells (FIG. 6a-c). N2B27 medium was used for screening and Wnt signaling agonist CHIR 99021 was also added for promoting cell proliferation. In the primary screen, we focused on identifying small molecules that can increase the percentage of Zscan4-Emerald GFP+ cells, and identified more than 50 primary hits. These candidates were further evaluated using MERVL-tdTomato reporter cells and small molecules that can also induce MERVL-tdTomato were selected out for further determining their optimal dosage in activating Zscan4-Emerald and MERVL-tdTomato expression without inducing significant toxicity. […] Therefore, CHIR 99021 was included in the chemical cocktail.

In assay [2] the test system is 8-cell ICR diploid mouse embryos. In words: Chimeric assay of single-cell microinjection into 8-cell embryos. In kind it is in vivo. Conditions: omission of CHIR 99021. Here is the method: Cells were digested by 0.05% trypsin-EDTA, and the digested cells were filtered through a 40 µm cell strainer, centrifuged at 1,200-1,500 rpm for 3 min at room temperature. Supernatant were removed and cells were suspended using culture medium with the addition of Y-27632 (10 μM; Tocris, 1254), and placed on the ice before injection. After being placed on ice, the digested cells should be injected in 1 h, otherwise, another batch of cells were digested for the remaining injections.
Single cells were microinjected into 8-cell ICR diploid mouse embryos. The injected embryos were cultured in the culture medium with Y-27632 (10 μM; Tocris, 1254) for the first 4 h. For the generation of chimeric blastocysts, the embryos were transferred into the KSOM medium (Merck, MR-106-D). For the generation of single-cell derived in vivo chimeric conceptuses, chimeric embryos were cultured into KSOM medium with Y-27632 (10 μM; Tocris, 1254) addition in a humidified incubator under 5% CO2 at 37° C. overnight. Injected embryos were transferred to uterine horns of 0.5 post coitum pseudo-pregnant females. Fetal tissues, yolk sacs, placentas were dissected from conceptuses at E7.5, E10.5, E13.5 or E17.5 developmental stages.

The subject of assay [3] is TPS cells. Description: Culture of TPS cells without CHIR 99021. Format: cell-based, mouse. Here is the method: All cell lines were cultured under 20% 02 and 5% C02 at 37° C. Mouse TPS cells were cultured in 4S medium contained N2B27 basal medium [50% DMEM/F12 (Gibco, 11330-032), 50% Neurobasal (Gibco, 21103-049), 0.5% N2 supplement (Gibco, 17502-048), 1% B27 supplement (Gibco, 12587-010), 1% GlutaMAX (Gibco, 35050-061), 1% nonessential amino acids (Gibco, 11140-050)] which promoted cell proliferation, or 1640 basal medium [RPMI Medium 1640 basic (Gibco, 22400-089), 0.5% N2 supplement (Gibco, 17502-048), 1% B27 supplement (Gibco, 12587-010), 1% GlutaMAX (Gibco, 35050-061), 1% nonessential amino acids (Gibco, 11140-050)] which enhanced totipotent molecular features, supplemented with 5% knockout serum replacement (Gibco, 10828-028), 0.2% sodium pyruvate (Gibco, 11360-070), 0.14% sodium DL-lactate solution (Sigma, L7900) and 0.1% Chemically Defined Lipid Concentrate (Gibco, 11905-031), VPA (50 μM; Selleck, S3944), CHIR-99021 (3 μM; Selleck, S1263), EPZ004777 (1 μM, Selleck, S7353) and CD1530 ([…]-0.5 μM; Tocris, 2554). Mouse TPS cells were cultured on mitomycin C inactivated mouse embryonic fibroblast cells (feeders, 3*10^4 cells per cm^2). The culture medium was changed every day. TPS cells were passaged every three days with 0.05% trypsin-EDTA (Gibco, 25300-062) and seeded at a split ratio ranging from 1:3 to 1:10. To generate TPS cells, EPS cells or ES cells were dissociated and cultured on feeders in 4S medium for the first three passages, EPS cells or ES cells need to seed at a lower split ratio 1:3 to improve cell viability. After five passages, TPS cells were generated for further experiments.
The total RNAs were isolated using the Direct-zol RNA Kits (ZYMO Research, R2052). RNA was converted to cDNA using TransScript FirstStrand cDNA Synthesis SuperMix (TransGen Biotech, AT311). Quantitative PCR analysis was conducted using the KAPA SYBR FAST qPCR Kit (KAPA Biosystems, KK4601) with the Bio RAD CFX Connect Real-Time System. The data were analyzed using the delta-delta CT method.
Next, we sought to analyze the role of CHIR 99021 in the induction and maintenance of TPS cells. […]

Assay [4] deals with EPS cells during TPS conversion. In words: Cell proliferation during conversion of EPS cells to TPS cells. Format: cell-based, mouse. Conditions: CHIR 99021 omitted from the cocktail during the conversion. The protocol: Mouse EPS cells and ES cells cultured in N2B27-LCDM medium or N2B27-2i/LIF medium for two days were used for TPS generation. Mouse EPS cells and ES cells were washed with DMEM/F12, then 0.05% trypsin-EDTA (Gibco, 25300-062) was added and incubated for 3 min, then DMEM (Gibco, 11965092) supplemented with 10% FBS (Hyclone, SH30070.03) was added. The cells were pipetted up and down several times into single cells. Cells were centrifuged and re-suspended in 4S medium contained N2B27 which promoted cell proliferation or RPMI Medium 1640 basic (Gibco, 22400-089) which enhanced totipotent molecular features supplemented with 5% knockout serum replacement (Gibco, 10828-028), 0.2% sodium pyruvate (Gibco, 11360-070), 0.14% sodium DL-lactate solution (Sigma, L7900) and 0.1% Chemically Defined Lipid Concentrate (Gibco, 11905-031), VPA (50 μM; Selleck, S3944), CHIR-99021, EPZ004777 (1 μM, Selleck, S7353) and CD1530 ([…]-0.5 μM; Tocris, 2554). […]
To identify small molecules that can induce totipotent features in mouse EPS cells, we used cell lines carrying a MERVL-TdTomato or a Zscan4-Emerald GFP reporter. […] These candidates were further evaluated using MERVL-tdTomato reporter cells and small molecules that can also induce MERVL-tdTomato were selected out for further determining their optimal dosage in activating Zscan4-Emerald and MERVL-tdTomato expression without inducing significant toxicity. […]

We go through four compounds from US20250188422A1, “INDUCED TOTIPOTENT POTENTIAL STEM CELLS, METHODS OF MAKING AND USING” (Peking University, priority 2022, published 2025).

In the case of `O=C(O)c1ccc(-c2ccc3cc(O)c(C45CC6CC(CC(C6)C4)C5)cc3c2)cc1` [CD1530], in assay [1] (EPS reporter cells, N2B27 medium with CHIR 99021, after titration, compared with other screening hits), the “inducing Zscan4-GFP and MERVL-tdTomato expression” value is given as “most effective”.

For `Cc1c[nH]c(-c2cnc(NCCNc3ccc(C#N)cn3)nc2-c2ccc(Cl)cc2Cl)n1` [CHIR 99021], the “in vivo chimeric of TPS cells” value in assay [2] is given as “greatly reduce”. For the same compound, the “requirement for the proliferation of TPS cells” value in assay [3] (omission of CHIR 99021, after further passaging) was “not required”. In addition, the “expression of totipotent marker genes in TPS cells” value in assay [3] (omission of CHIR 99021, after long-term culturing) is given as “not affected”. In addition, the “proliferation of TPS cells” value in assay [3] (omission of CHIR 99021, first few passages (about 3-5 passages)) was “reduced proliferation”. In addition, in assay [4], the cell proliferation entry was “greatly reduced”.

Take `CC(C)N(CCCNC(=O)Nc1ccc(C(C)(C)C)cc1)C[C@H]1O[C@@H](n2ccc3c(N)ncnc32)[C@H](O)[C@@H]1O` [EPZ004777]: the “effect with CD1530 in inducing totipotent markers” value in assay [1] was “synergistic effect”.

Take `CCCC(CCC)C(=O)O` [VPA]: the “effect with CD1530 in inducing totipotent markers” value in assay [1] was “synergistic effect”.
